Test results: patent publication US20240041042A1, “1-(PYRIDYL)-5-AZINYLPYRAZOLE DERIVATIVES, AND THEIR USE FOR CONTROL OF UNDESIRED PLANT GROWTH” (Bayer Aktiengesellschaft, priority 2020, published 2024)
Like-named read-outs stand apart in the source and are kept apart here.

Columns and labels:
Assay type in all cases: in vivo
[1] = test system: Matricaria inodora (MATIN); test: Pre-emergence herbicidal action against MATIN; conditions: dosage 320 g/ha
Outline: (§1)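 Seeds sown in pots and covered with soil; WP or EC formulations sprayed onto the soil surface at 600 l/ha water with 0.5% additive, at 320 g/ha or lower. Greenhouse growth for about 3 weeks, then visual scoring as % effect against untreated controls (100% = plants dead).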

Lolium rigidum (LOLRI) = test: Pre-emergence herbicidal action against LOLRI; conditions: dosage 320 g/ha
Outline: as §1

[2] = test system: Polygonum convolvulus (POLCO); test: Pre-emergence herbicidal action against POLCO
Outline: as §1

[3] = test system: Polygonum convolvulus (POLCO); test: Post-emergence herbicidal action against POLCO
Outline: (§2)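 Values are percent visual activity (0% like control, 100% plants dead) after about 3 weeks in the greenhouse. Treatment: post-emergence spray at one-leaf stage, 600 l/ha spray volume, 0.5% additive, doses 320 g/ha or lower.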

[4] = test system: Pharbitis purpurea (PHBPU); test: Post-emergence herbicidal action against PHBPU
Outline: as §2

Viola tricolor (VIOTR) [5] = test: Post-emergence herbicidal action against VIOTR
Outline: as §2

Setaria viridis (SETVI) [6] = test: Post-emergence herbicidal action against SETVI; conditions: dosage 320 g/ha
Outline: as §2

[7] = test system: Digitaria sanguinalis (DIGSA); test: Post-emergence herbicidal action against DIGSA; conditions: 320 g/ha, visual rating about 3 weeks after treatment
Outline: as §2

Setaria viridis (SETVI) [8] = test: Pre-emergence herbicidal action against SETVI; conditions: dosage 320 g/ha
Outline: as §1

[9] = test system: Triticum aestivum (TRZAS); conditions: pre-emergence, crop plant compatibility, in comparison to untreated controls
Outline: (§3)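 Crop injury rated visually in percent against untreated plants roughly 3 weeks after treatment (0% no effect, 100% plants dead). Compounds, as WP or EC with 0.5% additive in 600 l/ha water, were applied to the covering soil right after sowing; greenhouse growth. Suffixes a, b, c denote different dosages.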

Zea mays (ZEAMX) [10] = conditions: pre-emergence, 80 g/ha, crop plant compatibility, in comparison to untreated controls
Outline: as §3

Viola tricolor (VIOTR) [11] = test: Pre-emergence herbicidal action against VIOTR
Outline: as §1

[12] = test system: Abutilon theophrasti (ABUTH); test: Post-emergence herbicidal action against ABUTH; conditions: visual rating about 3 weeks after treatment vs untreated controls (100% = plants have died, 0% = like control plants)
Outline: as §2

[13] = test system: Verconica persica (VERPE); test: Pre-emergence herbicidal action against VERPE
Outline: as §1

[14] = test system: Alopecurus myosuroides (ALOMY); test: Pre-emergence herbicidal action against ALOMY; conditions: scored visually after about 3 weeks, 100% = plants have died
Outline: as §1

[15] = test system: Triticum aestivum (TRZAS); conditions: crop plant compatibility, 80 g/ha, effect vs untreated controls
Outline: (§4)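 Foliar application at the one-leaf stage: WP/EC formulation, 0.5% additive, 600 l/ha water. Greenhouse-grown in sandy loam. Endpoint is visual % injury relative to untreated controls at about 3 weeks.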

Oryza sativa (ORYSA) [16] = conditions: crop plant compatibility, effect in comparison to untreated controls
Outline: as §4

Zea mays (ZEAMX) [17] = conditions: crop plant compatibility, 80 g/ha, effect vs untreated controls
Outline: as §4

[18] = test system: Amaranthus retroflexus (AMARE); test: Pre-emergence herbicidal action against AMARE; conditions: visual scoring after about 3 weeks vs untreated controls
Outline: as §1

[19] = test system: Echinochloa crus-galli (ECHCG); test: Pre-emergence herbicidal action against ECHCG; conditions: dosage 320 g/ha
Outline: as §1

[20] = test system: Amaranthus retroflexus (AMARE); test: Post-emergence herbicidal action against AMARE
Outline: as §2

[21] = test system: Matricaria inodora (MATIN); test: Post-emergence herbicidal action against MATIN
Outline: as §2

[22] = test system: Verconica persica (VERPE); test: Post-emergence herbicidal action against VERPE
Outline: as §2

[23] = test system: Digitaria sanguinalis (DIGSA); test: Pre-emergence herbicidal action against DIGSA
Outline: as §1

Avena fatua (AVEFA) [24] = test: Pre-emergence herbicidal action against AVEFA; conditions: 320 g/ha, visual scoring after about 3 weeks vs untreated controls
Outline: as §1

[25] = test system: Alopecurus myosuroides (ALOMY); test: Post-emergence herbicidal action against ALOMY; conditions: 320 g/ha, visual rating about 3 weeks after treatment vs untreated controls (100% = plants have died, 0% = like control plants)
Outline: as §2

[26] = test system: Echinochloa crus-galli (ECHCG); test: Post-emergence herbicidal action against ECHCG; conditions: dosage 320 g/ha
Outline: as §2

[27] = test system: Pharbitis purpurea (PHBPU); test: Pre-emergence herbicidal action against PHBPU; conditions: dosage 320 g/ha
Outline: as §1

Avena fatua (AVEFA) [28] = test: Post-emergence herbicidal action against AVEFA; conditions: 320 g/ha, visual rating about 3 weeks after treatment
Outline: as §2

Oryza sativa (ORYSA) [29] = conditions: pre-emergence, crop plant compatibility, in comparison to untreated controls
Outline: as §3

[30] = 80 g/ha, visual rating about 3 weeks after treatment vs untreated controls (100% = plants have died, 0% = like control plants)
[31] = 320 g/ha, visual rating about 3 weeks after treatment

COC(=O)[C@@H](C)Oc1nn(-c2ncccc2F)c(-c2cccnc2)c1C#N [Example I-04]
80%: Post-emergence action against VIOTR in % (Viola tricolor (VIOTR) [5]; 320 g/ha) | Post-emergence action against DIGSA in % [7]
20%: Post-emergence action against TRZAS in % [15]
90%: Pre-emergence action against MATIN in % [1] | Pre-emergence action against LOLRI in % (Lolium rigidum (LOLRI)) | Post-emergence action against POLCO in % ([3]; dosage 320 g/ha) | Post-emergence action against ABUTH in % ([12]; 80 g/ha) | Post-emergence action against ABUTH in % ([12]; 320 g/ha) | Pre-emergence action against AMARE in % ([18]; 80 g/ha) | Pre-emergence action against ECHCG in % [19] | Post-emergence action against AMARE in % [20, 30] | Post-emergence action against AMARE in % [20, 31]
100%: Pre-emergence action against POLCO in % ([2]; dosage 320 g/ha) | Post-emergence action against PHBPU in % ([4]; dosage 320 g/ha) | Post-emergence action against SETVI in % (Setaria viridis (SETVI) [6]) | Pre-emergence action against SETVI in % (Setaria viridis (SETVI) [8]) | Pre-emergence action against VIOTR in % (Viola tricolor (VIOTR) [11]; 320 g/ha, Viola tricolor) | Pre-emergence action against VERPE in % ([13]; dosage 320 g/ha) | Pre-emergence action against ALOMY ([14]; 320 g/ha) | Pre-emergence action against AMARE in % ([18]; 320 g/ha)
0%: Pre-emergence action against TRZAS in % ([9]; 80 g/ha) | Pre-emergence action against ZEAMX in % (Zea mays (ZEAMX) [10]) | Post-emergence action against ORYSA in % (Oryza sativa (ORYSA) [16]; 80 g/ha) | Post-emergence action against ORYSA in % (Oryza sativa (ORYSA) [16]; 320 g/ha) | Post-emergence action against ZEAMX in % (Zea mays (ZEAMX) [17])

O=C(O)COc1nn(-c2ccccn2)c(-c2ccc(Cl)nc2)c1Cl [Example I-236]
20%: Pre-emergence action against TRZAS in % ([9]; 80 g/ha) | Pre-emergence action against ZEAMX in % (Zea mays (ZEAMX) [10])
90%: Pre-emergence action against LOLRI in % (Lolium rigidum (LOLRI)) | Pre-emergence action against DIGSA in % ([23]; dosage 320 g/ha)
0%: Post-emergence action against ORYSA in % (Oryza sativa (ORYSA) [16]; 80 g/ha) | Post-emergence action against ORYSA in % (Oryza sativa (ORYSA) [16]; 320 g/ha) | Post-emergence action against ZEAMX in % (Zea mays (ZEAMX) [17])
80%: Post-emergence action against MATIN in % ([21]; dosage 320 g/ha) | Post-emergence action against VERPE in % ([22]; 320 g/ha, VERPE) | Post-emergence action against POLCO in % ([3]; dosage 320 g/ha) | Post-emergence action against PHBPU in % ([4]; dosage 320 g/ha) | Pre-emergence action against AMARE in % ([18]; 320 g/ha) | Post-emergence action against AMARE in % [20, 31]

COC(=O)[C@@H](C)Oc1nn(-c2ncccc2F)c(-c2cccnc2)c1Br [Example I-03]
0%: Post-emergence action against ORYSA in % (Oryza sativa (ORYSA) [16]; 80 g/ha) | Post-emergence action against ZEAMX in % (Zea mays (ZEAMX) [17])
80%: Post-emergence action against MATIN in % ([21]; dosage 80 g/ha) | Post-emergence action against VERPE in % ([22]; dosage 80 g/ha) | Pre-emergence action against AVEFA in % (Avena fatua (AVEFA) [24]) | Post-emergence action against ABUTH in % ([12]; 80 g/ha) | Pre-emergence action against ECHCG in % [19] | Post-emergence action against AMARE in % [20, 30]
100%: Pre-emergence action against MATIN in % [1] | Pre-emergence action against LOLRI in % (Lolium rigidum (LOLRI)) | Pre-emergence action against POLCO in % ([2]; dosage 320 g/ha) | Post-emergence action against PHBPU in % ([4]; dosage 320 g/ha) | Pre-emergence action against DIGSA in % ([23]; dosage 320 g/ha) | Pre-emergence action against SETVI in % (Setaria viridis (SETVI) [8]) | Post-emergence action against ALOMY in % [25] | Pre-emergence action against VIOTR in % (Viola tricolor (VIOTR) [11]; 320 g/ha, Viola tricolor) | Pre-emergence action against VIOTR in % (Viola tricolor (VIOTR) [11]; dosage 80 g/ha) | Pre-emergence action against VERPE in % ([13]; dosage 320 g/ha) | Pre-emergence action against ALOMY ([14]; 320 g/ha) | Pre-emergence action against AMARE in % ([18]; 320 g/ha)
90%: Post-emergence action against MATIN in % ([21]; dosage 320 g/ha) | Pre-emergence action against POLCO in % ([2]; dosage 80 g/ha) | Post-emergence action against VERPE in % ([22]; 320 g/ha, VERPE) | Post-emergence action against POLCO in % ([3]; dosage 80 g/ha) | Post-emergence action against POLCO in % ([3]; dosage 320 g/ha) | Post-emergence action against PHBPU in % ([4]; dosage 80 g/ha) | Post-emergence action against VIOTR in % (Viola tricolor (VIOTR) [5]; 80 g/ha) | Post-emergence action against VIOTR in % (Viola tricolor (VIOTR) [5]; 320 g/ha) | Pre-emergence action against DIGSA in % ([23]; 80 g/ha, visual scoring after about 3 weeks vs untreated controls) | Post-emergence action against SETVI in % (Setaria viridis (SETVI) [6]) | Post-emergence action against ABUTH in % ([12]; 320 g/ha) | Pre-emergence action against VERPE in % ([13]; dosage 80 g/ha) | Post-emergence action against ECHCG in % [26] | Pre-emergence action against PHBPU in % [27] | Pre-emergence action against ALOMY ([14]; 80 g/ha) | Post-emergence action against AVEFA in % (Avena fatua (AVEFA) [28]) | Pre-emergence action against AMARE in % ([18]; 80 g/ha) | Post-emergence action against AMARE in % [20, 31]
10%: Pre-emergence action against TRZAS in % ([9]; 80 g/ha)

CCOC(=O)COc1nn(-c2ccncc2)c(-c2ccc(F)nc2)c1Br [III-08]
0%: Pre-emergence action against TRZAS in % ([9]; 80 g/ha) | Pre-emergence action against TRZAS in % ([9]; 320 g/ha) | Pre-emergence action against ORYSA in % (Oryza sativa (ORYSA) [29]; 80 g/ha) | Pre-emergence action against ORYSA in % (Oryza sativa (ORYSA) [29]; 320 g/ha) | Post-emergence action against TRZAS in % [15] | Post-emergence action against ORYSA in % (Oryza sativa (ORYSA) [16]; 80 g/ha) | Post-emergence action against ORYSA in % (Oryza sativa (ORYSA) [16]; 320 g/ha)
90%: Pre-emergence action against VIOTR in % (Viola tricolor (VIOTR) [11]; 320 g/ha, Viola tricolor)
80%: Post-emergence action against POLCO in % ([3]; dosage 320 g/ha) | Post-emergence action against VIOTR in % (Viola tricolor (VIOTR) [5]; 320 g/ha) | Post-emergence action against ALOMY in % [25] | Pre-emergence action against AMARE in % ([18]; 320 g/ha) | Post-emergence action against AMARE in % [20, 31]
